Laboratory results as given in ChEMBL document CHEMBL1157539, “Thousands of chemical starting points for antimalarial lead identification” (Nature, 2010).

The compounds below were run on Plasmodium falciparum (assay: GSK_TCMDC: Inhibition of Plasmodium falciparum 3D7 in whole erythrocytes, using parasite LDH activity as an index of growth.). Details: Plasmodium falciparum, 3D7.
Type: functional, organism-based
`CC(C)c1cccc(OCC2CCN(c3ncc(C(=O)Nc4ccccc4)cc3Cl)CC2)c1` was tested, and the XC50 was 1060 nM. In the case of `N=C(N)NC(=O)Nc1cc(Cl)c(Cl)c(C(F)(F)F)c1`, the XC50 was 611 nM. In the case of `CN1CCC(c2ccc(NC(=O)c3ccc(-c4cccc(C(F)(F)F)c4)o3)cc2)CC1`, the XC50 was 1130 nM. Work on `CC(C)(C)c1ccccc1SC1=C(O)CC2(CCNCC2)OC1=O` yielded an XC50 of 884 nM. `Cc1ccc(Cn2nc(N3CCNCC3)ccc2=O)cc1NC(=O)Nc1ccc(-c2ccccc2)cc1` showed an XC50 of 836 nM. `CC1CN(c2ccc(NC(=O)c3ccc(F)cc3)cc2)CCN1Cc1cccc(F)c1` (centres undefined) gave an XC50 of 1350 nM. `C[C@H](Nc1nc(C(Oc2ccccc2)c2ccccc2)nc2[nH]ncc12)c1ccccc1` (some centres undefined) was tested, and the XC50 was 484 nM. Work on `COc1cc(NC(=O)/C=C/c2ccccc2OC(F)(F)F)cc(OCCN2CCN(CCN3CCOCC3)CC2)c1` yielded an XC50 of 157 nM. `CC(C)=CCN1CCC(C(=O)Nc2ccc(-c3nc4ccccc4[nH]3)cc2)CC1` was tested, and the XC50 was 908 nM. `C=CCN1C(=O)CN(S(=O)(=O)c2ccc(-n3nc(C)cc3C)cc2)C1=S` was tested, and the XC50 was 941 nM. For `OC(CNc1ccnc(Nc2ccc(Cl)cc2)n1)c1ccccc1C(F)(F)F` (centres undefined), the XC50 was 788 nM. Work on `Cc1cccc2nc(-c3cccc(-c4ccc(NC(=O)C(C)C(=O)NC(C)C)cc4)c3)[nH]c12` (centres undefined) yielded an XC50 of 1000 nM. `Cc1cc(Cl)ccc1N(Cc1ccccc1)c1ccnc(Cl)n1` showed an XC50 of 859 nM. `COc1cc2nc(NCCn3cccn3)nc(NCCc3ccccc3)c2cc1OC` showed an XC50 of 281 nM. `Cc1cc2ncn(-c3nccc(NCc4ccc(F)c(C)c4)n3)c2cc1C` was tested, and the XC50 was 990 nM. Compound `CN(C)CCOc1ccc(N2CCN(CCCCNC(=O)c3ccc(NC(=O)c4ccc(Cl)cc4)cc3)CC2)cc1` has an XC50 of 826 nM. `CC1(C)CCC(=Cc2ccc(Cl)cc2)CC1(O)Cn1ccnc1` (centres undefined) gave an XC50 of 743 nM. Compound `CCOc1cc(C)ccc1C1CCN(CCCCNC(=O)c2ccc(NC(=O)c3cc(Cl)cc(Cl)c3)cc2)CC1` has an XC50 of 355 nM. `COc1ccc(NC(=O)[C@H](C)Nc2cc(C)nc(NCC3CCCCC3)n2)cc1` showed an XC50 of 1280 nM. In the case of `Cc1c(-c2cccc(C(C)(C)NCCCN3CCCCC3)c2)cnc(N)c1C`, the XC50 was 938 nM. With `CC(C)C[C@H](Nc1ccnc(NCC2CCCCC2)n1)C(=O)Nc1ccccc1` the XC50 was 1430 nM. With `Cc1cc(-c2cc(-c3ccc(OCCN(C)C)cc3)[nH]c2-c2ccc3c(c2)CCC3=NO)ccn1` the XC50 was 867 nM. With `Cc1nnc(-c2ccc3ccccc3c2)c2cn(-c3cccc([N+](=O)[O-])c3)nc12` the XC50 was 988 nM. With `COc1cc(Nc2ccc3cc(S(=O)(=O)N4CCCCC4C)ccc3n2)cc(OC)c1OC` (centres undefined) the XC50 was 1240 nM. For `O=C(Nc1ccc(-c2cccc(-c3nc4cc(C(F)(F)F)ccc4[nH]3)c2)cc1)c1csnn1`, the XC50 was 802 nM. With `O=C(NCCc1cccc(F)c1)c1ccc(N2CCN(c3ccncc3)CC2)cn1` the XC50 was 1020 nM. For `COc1ccc(S(=O)(=O)Nc2ccc(C(=O)NCc3ccc(C(F)(F)F)cc3)cc2)cc1N1CCN(CC2CC2)CC1`, the XC50 was 1120 nM. In the case of `Cc1ccc(NC(=O)c2cccc(CN3CCCN(Cc4cccc(O)c4)CC3)c2)cc1`, the XC50 was 1310 nM. `O=S(=O)(c1ccccc1)C1CC1` was tested, and the XC50 was 724 nM. Compound `COc1cccc2c1CCN(CCN1CCC(CNC(=O)c3ccc(-c4ccc(C#N)cc4)cc3)CC1)C2` has an XC50 of 758 nM. For `CC(C)(NCc1ccc(OC(F)(F)F)cc1)c1nc(-c2ccc(Cl)c(O)c2)c(-c2ccncc2)[nH]1`, the XC50 was 940 nM. `CC(CN(C)C)C(=O)Nc1cccc(-c2cccc(-c3nc4cc(F)ccc4[nH]3)c2)c1` (centres undefined) gave an XC50 of 826 nM. `Cc1nnsc1C(=O)Nc1cccc(-c2ccc(-c3nc4cc(F)ccc4[nH]3)s2)c1` gave an XC50 of 889 nM. Compound `CS(=O)(=O)c1cccc2sc(N3CCN(C(=O)c4ccc([N+](=O)[O-])o4)CC3)nc12` has an XC50 of 1240 nM. Work on `Cc1noc(C)c1-c1cccc(CNCc2ccc(-c3ccc(-c4nc5cc(C(F)(F)F)ccc5[nH]4)cc3)cc2)c1` yielded an XC50 of 172 nM. `COc1ccc(C(=O)Nc2cc(Br)c3c(c2)CNCC3)cc1Br` showed an XC50 of 915 nM. `COc1cc(F)c2ncc(Cl)c(C(O)CN3CCC(NC(=O)c4ccc5c(n4)NC(=O)CO5)CC3)c2c1` (centres undefined) showed an XC50 of 754 nM. Work on `CCN(CC)CCCC(C)Nc1c2ccccc2nc2c1ccc1ccccc12` (centres undefined) yielded an XC50 of 1090 nM. `CCCCCC1c2[nH]c3ccccc3c2CCN1C(=O)OCc1ccccc1` (centres undefined) was tested, and the XC50 was 389 nM. `CC(C)C(NC(=O)c1c(F)cccc1F)C(=O)Nc1ccc(Cc2nc3ccccc3s2)cc1` (centres undefined) showed an XC50 of 448 nM. Compound `O=C(/C=C/c1cc(F)c(F)cc1F)N1CCC(CN2CCC(c3c[nH]c4ccccc34)CC2)CC1` has an XC50 of 995 nM. Work on `Cc1ccc2c(N/N=C/c3cccc([N+](=O)[O-])c3)cc(C)nc2c1` yielded an XC50 of 272 nM. Compound `CC(=O)C1(c2ccccc2)CCN(CCC2(c3ccc(Cl)c(Cl)c3)CN(C(=O)c3cccc(Cl)c3)CCO2)CC1` (centres undefined) has an XC50 of 854 nM. With `COc1ccc(NC(=O)NCC2CCCN(CCCCCNC(=O)/C=C/c3ccc(Cl)c(Cl)c3)C2)c(OC)c1` (centres undefined) the XC50 was 859 nM. `Cc1cc(Cc2ccc(S(=O)(=O)c3cc4c(cc3O)CCN(C)CC4)cc2)ccc1Cl` showed an XC50 of 911 nM. Work on `O=C(Nc1cccc(C(F)(F)F)c1)c1cccc(S(=O)(=O)NCC2CCN(CC3CCCCC3)CC2)c1` yielded an XC50 of 1470 nM. For `COc1cc2nc(N3CCC(CNC(=O)c4ccc(-c5ccc(C#N)cc5C)cc4)CC3)nc(N)c2cc1OC`, the XC50 was 180 nM. In the case of `Cc1cc(NCCC(=O)Nc2ccccc2)nc(NCCc2cccs2)n1`, the XC50 was 893 nM. `Cc1nc(-c2ccc(C(F)(F)F)cn2)sc1C(=O)N1CCc2cc3nccc(N4CCN5CCC[C@H]5C4)c3cc21` gave an XC50 of 784 nM. Compound `CCCCCN1CCC(NC(=O)c2ccc(C(=O)Nc3ccc(C(C)C)cc3)cc2)CC1` has an XC50 of 845 nM. Compound `COc1ccc(-c2ncnc(C(F)(F)F)c2-c2ccc(Cl)cc2)c(O)c1` has an XC50 of 805 nM. `COc1coc(C(=O)NC2CCN(CC3(c4ccc(Cl)cc4)CCC3)CC2)c1OC` was tested, and the XC50 was 164 nM. For `CCN(CC(C)O)C(=O)c1ccc(-c2ccc(-c3nc4cccc(C)c4[nH]3)cc2)cc1` (centres undefined), the XC50 was 840 nM. `CN(C)C(=O)c1cc(CNCc2ccccc2)ccc1-c1cccc(CNCc2ccc(-c3ccccc3)cc2)c1` gave an XC50 of 1050 nM. Work on `Cc1nc(N/C=C/c2ccc(O)cc2)cc(N2CCCC2)n1` yielded an XC50 of 1070 nM. `Cc1ccc(NC(=S)NC2CCN(CCCCCNC(=O)/C=C/c3ccc(Cl)c(Cl)c3)CC2)cc1Cl` was tested, and the XC50 was 992 nM. With `O=C(Nc1ccc(C(F)(F)F)cc1)NC1CCN(c2ccnc3ccccc23)CC1` the XC50 was 185 nM. With `Cc1cc(OCC(=O)Nc2ccc(-c3nc4ccccc4[nH]3)cc2)cc(C)c1Cl` the XC50 was 742 nM. Compound `CC(C)(C)CCOC(=O)N1CCc2c(cc(O)c(O)c2Cl)C(c2ccc(O)cc2)C1` (centres undefined) has an XC50 of 752 nM. `CCn1ccc2c(N3CCCCS3(=O)=O)cc(C(=O)N[C@@H](Cc3ccccc3)[C@H](O)CNC(C)(C)c3cccc(C(F)(F)F)c3)cc21` showed an XC50 of 133 nM. In the case of `COc1cccc(-c2csc(C(=O)NCC3CCN(Cc4ccc(C(C)C)cc4)C3)c2)c1` (centres undefined), the XC50 was 1390 nM. `COc1ccc2nccc([C@@H](O)CN3CCC(NCc4ccc5c(c4)NC(=O)CS5)CC3)c2n1` showed an XC50 of 747 nM. Work on `CN1CCN(c2ccnc3ccc(NC(=O)N(C)c4ccc(Cl)c(Cl)c4)cc23)CC1` yielded an XC50 of 741 nM. Work on `Cc1ccc(NC(=O)N2CCN(CCCCCNC(=O)/C=C/c3ccc(Cl)c(Cl)c3)CC2)cc1C` yielded an XC50 of 1100 nM. For `CC(C)(C)c1ccc(CNC(=O)c2cc(CNC3CCC(N)CC3)ccc2O)cc1` (centres undefined), the XC50 was 1030 nM. `CCNC(=O)Nc1ccc(-c2cccc(-c3nc4cccc(C)c4[nH]3)c2)cc1` gave an XC50 of 756 nM. With `Cc1cccc(-n2nc(C)c3c2NC(=O)CC3C(=O)c2ccc(Cl)s2)c1` (centres undefined) the XC50 was 466 nM. `O=C(Cc1cccc2ccccc12)N1CCc2cc3nccc(N4CCN5CCC[C@H]5C4)c3cc21` was tested, and the XC50 was 777 nM. Work on `CCOC(=O)N1CCN(CCCNc2c3ccccc3nc3ccccc23)CC1` yielded an XC50 of 1010 nM.
